Among the test systems are OVCAR-3; LOX IMVI; SNB-75; HOP-92; MOLT-4; SNB-19; UACC-62; HL-60; OVCAR-8; COLO 205; NCI-H23; SK-MEL-5; RPMI-8226; HCT-116; K562; NCI-H226; MDA-MB-231; DU-145; SW-620.
Assay in all cases: DTP human tumour cell line panel, 48 h

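A five-concentration, 48-hour dose response in 96-well plates underlies each endpoint, interpolated linearly between surrounding concentrations. Abbreviation: GI50, concentration required for 50% inhibition of growth.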 Active and inactive are the calls of the source. Cut-off read from the data, not from the text of the source: active = GI50 up to about 1.1 µM and inactive = higher.

As a reminder, the GI50 is the concentration at which growth is held to half of that of the control. For the compound `CCOC(=O)C1(C)CCC(C(=O)OC)C1=O` (stereo unspecified), the GI50 in the experiment on OVCAR-3 is > 100 µM (inactive); in the experiment with LOX IMVI, 18.1 µM (inactive); in the experiment with SNB-75 it was > 100 µM (inactive); in the experiment with HOP-92 it was > 100 µM (inactive); with MOLT-4, 87.9 µM (inactive); in the experiment with SNB-19, > 100 µM (inactive). Moreover, the GI50 is > 100 µM (inactive) in the experiment on UACC-62; 53.1 µM (inactive) with HL-60; > 100 µM (inactive) in the experiment on OVCAR-8; 44.1 µM (inactive) in the experiment on COLO 205; > 100 µM (inactive) with NCI-H23; > 100 µM (inactive) in the experiment with SK-MEL-5. For the same compound, the GI50 in the experiment with RPMI-8226 is > 100 µM (inactive); with HCT-116, 57 µM (inactive); in the experiment on K562, 32.8 µM (inactive); in the experiment with NCI-H226, > 100 µM (inactive).

Regarding `CC1(C)C2C=CC1(C)C1(CC2)OCCO1` (stereo unspecified), the GI50 is > 100 µM (inactive) with OVCAR-3; > 100 µM (inactive) in the experiment with MDA-MB-231; > 100 µM (inactive) in the experiment with LOX IMVI; 66.1 µM (inactive) with SNB-75; > 100 µM (inactive) in the experiment with DU-145; > 100 µM (inactive) with MOLT-4. Besides, the GI50 in the experiment on SNB-19, in the experiment with UACC-62, with HL-60, in the experiment on OVCAR-8, with COLO 205 and in the experiment with NCI-H23 was > 100 µM (inactive) throughout. The GI50 with SW-620, in the experiment with RPMI-8226, in the experiment with HCT-116, with K562 and in the experiment with NCI-H226 was > 100 µM (inactive) in each case.

For `COc1cc(/C=C/C(=N\NC(=O)c2ccccc2)c2sc(Nc3ccc(Cl)c(Cl)c3)nc2C)ccc1O`, the GI50 was 30.3 µM (inactive) in the experiment with OVCAR-3; 19.7 µM (inactive) with LOX IMVI; 33.3 µM (inactive) with SNB-75; < 0.01 µM (active) in the experiment with HOP-92; 20.7 µM (inactive) in the experiment with MOLT-4; 31.6 µM (inactive) with SNB-19. The GI50 in the experiment on UACC-62 was 7.59 µM (inactive); in the experiment on HL-60, 16.1 µM (inactive); in the experiment with OVCAR-8, 33.3 µM (inactive); with COLO 205, 34 µM (inactive); in the experiment on NCI-H23 it was 25.7 µM (inactive); in the experiment with SW-620, 40.4 µM (inactive). Further, the GI50 in the experiment on HCT-116 was 28.2 µM (inactive); in the experiment with K562 it was 25.2 µM (inactive); with NCI-H226 it was 20.5 µM (inactive).

With `Brc1ccc(-c2nnc(-c3nn(-c4ccccc4)c4nc5ccccc5nc34)o2)cc1`, the GI50 in the experiment with OVCAR-3 was 95.7 µM (inactive); in the experiment with LOX IMVI, > 100 µM (inactive); in the experiment on SNB-75 it was > 100 µM (inactive); with HOP-92, > 100 µM (inactive); in the experiment on MOLT-4, 33.5 µM (inactive); in the experiment on SNB-19, > 100 µM (inactive). Besides, the GI50 was > 100 µM (inactive) with UACC-62; 27.3 µM (inactive) in the experiment with HL-60; > 100 µM (inactive) in the experiment with OVCAR-8; > 100 µM (inactive) in the experiment on COLO 205; > 100 µM (inactive) in the experiment on NCI-H23; 21.3 µM (inactive) in the experiment with SK-MEL-5. Besides, the GI50 in the experiment with SW-620 was > 100 µM (inactive); in the experiment on RPMI-8226 it was 30.5 µM (inactive); with HCT-116 it was 27.8 µM (inactive); with K562 it was 27 µM (inactive); in the experiment on NCI-H226, > 100 µM (inactive).

As for `C[C@]12CC=CC(=O)[C@@]1(C)CCC(=O)C2`, the GI50 in the experiment with OVCAR-3, in the experiment with SNB-75, with HOP-92, with MOLT-4, with SNB-19 and with UACC-62 was > 100 µM (inactive) throughout. Further, the GI50 in the experiment on HL-60, in the experiment with OVCAR-8, in the experiment on NCI-H23, with SK-MEL-5, with SW-620 and in the experiment on HCT-116 was > 100 µM (inactive) throughout. The GI50 in the experiment on K562 and in the experiment on NCI-H226 was > 100 µM (inactive) each time.

Turning to `CCOC(=O)c1nc2ccc(C(F)(F)F)cc2nc1NCc1ccc(F)cc1`, the GI50 in the experiment with OVCAR-3 is 50.2 µM (inactive); in the experiment on MDA-MB-231, 32.1 µM (inactive); in the experiment on LOX IMVI, 26.1 µM (inactive); with SNB-75, 91.4 µM (inactive); in the experiment with HOP-92, 4.83 µM (inactive); in the experiment with DU-145, 46.5 µM (inactive). Besides, the GI50 was 42.8 µM (inactive) in the experiment on MOLT-4; 32.6 µM (inactive) with SNB-19; 23.1 µM (inactive) in the experiment on UACC-62; 29.6 µM (inactive) in the experiment with HL-60; 30.9 µM (inactive) with OVCAR-8; 27 µM (inactive) with COLO 205. The GI50 is 27.5 µM (inactive) in the experiment on NCI-H23; 34.1 µM (inactive) in the experiment on SW-620; 23.5 µM (inactive) in the experiment with RPMI-8226; 35.9 µM (inactive) with HCT-116; 24.5 µM (inactive) with K562; 29 µM (inactive) in the experiment with NCI-H226.

In the case of `Cc1nnc(N/N=C(/C(=O)C(C#N)c2ccc(Cl)cc2)C(C#N)c2ccc(Cl)cc2)n1N` (stereo unspecified), the GI50 in the experiment with OVCAR-3 is 21.5 µM (inactive); in the experiment with LOX IMVI it was 18.6 µM (inactive); in the experiment on SNB-75, 16.4 µM (inactive); in the experiment with HOP-92, > 100 µM (inactive); in the experiment on MOLT-4 it was 31.7 µM (inactive); in the experiment on SNB-19 it was 14.6 µM (inactive). In addition, the GI50 in the experiment on HL-60 is 22.5 µM (inactive); in the experiment on OVCAR-8, 20 µM (inactive); in the experiment with COLO 205, 17.7 µM (inactive); with NCI-H23 it was 17.8 µM (inactive); in the experiment on SK-MEL-5, 16 µM (inactive); in the experiment with SW-620, 18.8 µM (inactive). For the same compound, the GI50 with RPMI-8226 was 16.5 µM (inactive); in the experiment with K562 it was 17.5 µM (inactive); with NCI-H226 it was 16.1 µM (inactive).

`CN1/C(=N\c2ccccc2)S/C1=N/c1ccccc1`: the GI50 was 34.1 µM (inactive) in the experiment on OVCAR-3; 74.6 µM (inactive) in the experiment with LOX IMVI; 6.62 µM (inactive) in the experiment with SNB-75; 10.2 µM (inactive) in the experiment with HOP-92; 69.3 µM (inactive) in the experiment with MOLT-4; > 100 µM (inactive) in the experiment on SNB-19. Also, the GI50 in the experiment on UACC-62 is > 100 µM (inactive); in the experiment on HL-60, 27.2 µM (inactive); in the experiment on OVCAR-8, > 100 µM (inactive); with COLO 205 it was 61 µM (inactive); in the experiment on NCI-H23, 40 µM (inactive); in the experiment with SK-MEL-5 it was 28.9 µM (inactive). Also, the GI50 in the experiment on SW-620 was > 100 µM (inactive); in the experiment on RPMI-8226 it was 39.5 µM (inactive); with HCT-116 it was 47.6 µM (inactive); in the experiment with K562, 56.5 µM (inactive); in the experiment with NCI-H226, > 100 µM (inactive).

Take `CCCCCCCCCC1CC(=O)Oc2cccc(O)c21` (stereo unspecified): the GI50 with OVCAR-3 is 16.3 µM (inactive); in the experiment with LOX IMVI, 14 µM (inactive); in the experiment on SNB-75, 40 µM (inactive); in the experiment with HOP-92, 34 µM (inactive); with MOLT-4, 26.7 µM (inactive); in the experiment with SNB-19, 3.7 µM (inactive). Moreover, the GI50 was 31.5 µM (inactive) in the experiment with UACC-62; 27.9 µM (inactive) in the experiment with HL-60; 31.8 µM (inactive) with OVCAR-8; 16.4 µM (inactive) with COLO 205; 3.31 µM (inactive) in the experiment with NCI-H23; 15.2 µM (inactive) in the experiment on SK-MEL-5. The GI50 was 29.2 µM (inactive) with SW-620; 28.4 µM (inactive) with RPMI-8226; 36.2 µM (inactive) with HCT-116; 24 µM (inactive) in the experiment with K562; 6.84 µM (inactive) in the experiment on NCI-H226.

Values taken from ChEMBL document CHEMBL1201862, “PubChem BioAssay data set” (2004).
